Reference: PubChem BioAssay (NCI)
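Interpolation was linear, between the two tested concentrations surrounding the appropriate level; five concentrations were tested over 48 hours in 96-well plates. TGI marks complete inhibition of growth.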

Tests used:
Assay in all cases: DTP human tumour cell line panel, 48 h
SNB-75 CNS = system: SNB-75 CNS
EKVX NSCLC = system: EKVX NSCLC
SR leukemia = system: SR leukemia
U251 CNS = system: U251 CNS
BT-549 breast = system: BT-549 breast
SK-MEL-28 melanoma = system: SK-MEL-28 melanoma
DU-145 prostate = system: DU-145 prostate
UO-31 renal = system: UO-31 renal
HCC-2998 colon = system: HCC-2998 colon
NCI-H23 lung = system: NCI-H23 lung
SW-620 colon = system: SW-620 colon
OVCAR-3 ovarian = system: OVCAR-3 ovarian
SF-268 CNS = system: SF-268 CNS
K-562 leukemia = system: K-562 leukemia

Structure (SMILES) | TGI (SNB-75 CNS) | TGI (EKVX NSCLC) | TGI (SR leukemia) | TGI (U251 CNS) | TGI (BT-549 breast) | TGI (SK-MEL-28 melanoma) | TGI (DU-145 prostate) | TGI (UO-31 renal) | TGI (HCC-2998 colon) | TGI (NCI-H23 lung) | TGI (SW-620 colon) | TGI (OVCAR-3 ovarian) | TGI (SF-268 CNS) | TGI (K-562 leukemia)
CC1CCCOc2ccc(cc2)C=Nc2ccc(cc2)CCc2ccc(cc2)N=Cc2ccc(cc2)OCCC1 (stereo not drawn) | > 100 µM | > 100 µM | > 100 µM | > 100 µM | > 100 µM | > 100 µM | > 100 µM | > 100 µM | > 100 µM | > 100 µM | > 100 µM | > 100 µM | > 100 µM | > 100 µM
CON(C)C(=O)C(Cc1ccccc1)NC(=O)OC(C)(C)C (stereo not drawn) | > 100 µM | > 100 µM | > 100 µM | > 100 µM | > 100 µM | > 100 µM | > 100 µM | > 100 µM | > 100 µM | > 100 µM | > 100 µM | > 100 µM | > 100 µM | > 100 µM
[N-]=[N+]=NC1(N=[N+]=[N-])C(=O)NN=C(c2ccccc2)C1=O (stereo not drawn) | > 100 µM | > 100 µM | 75.5 µM | > 100 µM | > 100 µM | 31.9 µM | > 100 µM | > 100 µM | > 100 µM | > 100 µM | > 100 µM | > 100 µM | 28.4 µM | > 100 µM
COC(=O)C1([C@@H]2C[C@@H](O)[C@]3(C)CC/C=C(\C)CCC[C@H](C)[C@H](O)[C@@H]2O3)CC1 | 17.8 µM | > 100 µM | 95.3 µM | > 100 µM | > 100 µM | > 100 µM | > 100 µM | 60.3 µM | > 100 µM | > 100 µM | > 100 µM | > 100 µM | > 100 µM | > 100 µM
COC1Cc2c(C)c(OC(C)=O)c3cccnc3c2O1 (stereo not drawn) | 31.7 µM | 30.6 µM | 61.2 µM | > 100 µM | 41.5 µM | 53 µM | 31 µM | 27.3 µM | > 100 µM | 36.3 µM | 27.9 µM | 70.5 µM | 34 µM | 86 µM
CCOC(=O)C(NNS(=O)(=O)c1ccc(C)cc1)S(=O)(=O)C(F)(F)C(F)(F)C(F)(F)C(F)(F)F (stereo not drawn) | > 100 µM | > 100 µM | > 100 µM | > 100 µM | > 100 µM | > 100 µM | > 100 µM | > 100 µM | > 100 µM | > 100 µM | > 100 µM | > 100 µM | > 100 µM | > 100 µM
O=C(O)CN1CCNCCN(CC(=O)O)CC1 | > 100 µM | > 100 µM | > 29.4 µM | > 100 µM | > 100 µM | > 100 µM | > 100 µM | > 100 µM | 55.7 µM | 20.7 µM | > 100 µM | > 100 µM | > 100 µM | > 100 µM
COC(=O)[C@H](CCSC)NC(=O)c1ccc(CNC(=O)/C=C/c2cccc(Oc3ccccc3)c2)cc1 | > 100 µM | > 100 µM | > 100 µM | > 100 µM | > 100 µM | 34.2 µM | > 100 µM | > 100 µM | > 84 µM | > 92.1 µM | > 100 µM | > 93.6 µM | > 100 µM | > 78.8 µM
Cc1cc(C)c2c(=O)cc(-c3ccc(Cl)cc3)[nH]c2n1 | > 65 µM | > 100 µM | > 100 µM | > 100 µM | 99.4 µM | > 75.2 µM | > 100 µM | > 93.9 µM | > 100 µM | > 100 µM | > 100 µM | > 100 µM | > 100 µM | > 71.4 µM
COc1cccc2c1C(=O)C(=O)c1c-2oc(=O)c2cc(C)cc(OC)c12 | 55.7 µM | > 75 µM | > 75 µM | 23.2 µM | 26 µM | > 75 µM | 27.9 µM | > 75 µM | 37.6 µM | 58.4 µM | > 75 µM | 27.2 µM | 41.8 µM | > 75 µM
c1ccc(COCC23CCN(Cc4ccccc4)C(CC(OCc4ccccc4)C2)S3)cc1 (stereo not drawn) | > 100 µM | > 100 µM | 63.7 µM | > 100 µM | > 100 µM | > 100 µM | > 100 µM | > 100 µM | > 100 µM | 95.9 µM | > 100 µM | > 100 µM | > 100 µM | > 100 µM
NCC(=O)C(O)C(O)C(O)CO (stereo not drawn) | > 100 µM | > 100 µM | > 100 µM | > 100 µM | > 100 µM | > 100 µM | > 100 µM | > 100 µM | > 100 µM | > 100 µM | > 100 µM | > 100 µM | > 100 µM | > 100 µM
